Laboratory results taken from patent publication US20240108725A1, “METHOD FOR TREATING CANCER AND SYSTEM FOR SAME” (OTSUKA MEDICAL DEVICES CO., LTD, priority 2020, published 2024).

Tested on: TL-Om1 cells
Experiment: Rate of dead cells after 5-ALA PDT in erythrocyte solution, TL-Om1 cells, Example 3
Type: cell-based, human
Procedure: C6 cells or human leukemia cell line TL-Oml cells were cultured in 2.5% FBS/F-12K medium (C6 cells) or 10% FBS/RPMI1640 (TL-Oml cells) supplemented with 5-ALA to a final concentration of 0.125 to 0.5 mM in a 5% CO2 incubator at 37° C. for 4 hours. After the culture, the cells were removed with a 0.25% trypsin-EDTA solution, and the collected cells were adjusted to 2×10^7 cells/mL with an erythrocyte solution (a solution in which erythrocytes and PBS were mixed at a ratio of 45:55). The cell suspension thus prepared was injected into a Tygon tube (inner diameter: 0.79 mm), wrapped around a light irradiator, and irradiated with light having a wavelength of 630 nm so that the irradiation energy density was 0.5 to 500 J/cm^2. After the irradiation, an ammonium chloride solution was added to the cell suspension to hemolyze the erythrocytes. Cells before the PDT treatment, after the PDT treatment, and after 24-hour culture were stained with the FITC Annexin V Apoptosis Detection Kit I and the rate of dead cells was analyzed with a flow cytometer.

[1] = 5-ALA 0.125 mM, 10 J/cm^2, 24 hours after irradiation
[2] = 5-ALA 0.125 mM, 50 J/cm^2, 24 hours after irradiation
[3] = 5-ALA 0.125 mM, 100 J/cm^2, 24 hours after irradiation
[4] = 5-ALA 0.125 mM, 200 J/cm^2, 24 hours after irradiation
[5] = 5-ALA 0.125 mM, 300 J/cm^2, 24 hours after irradiation
[6] = 5-ALA 0.125 mM, 400 J/cm^2, 24 hours after irradiation
[7] = 5-ALA 0.125 mM, 500 J/cm^2, 24 hours after irradiation
[8] = 5-ALA 0.25 mM, 1 J/cm^2, 24 hours after irradiation
[9] = 5-ALA 0.25 mM, 1 J/cm^2, immediately after irradiation
[10] = 5-ALA 0.25 mM, 2.5 J/cm^2, 24 hours after irradiation
[11] = 5-ALA 0.25 mM, 2.5 J/cm^2, immediately after irradiation
[12] = 5-ALA 0.25 mM, 5 J/cm^2, 24 hours after irradiation
[13] = 5-ALA 0.25 mM, 5 J/cm^2, immediately after irradiation
[14] = 5-ALA 0.25 mM, 10 J/cm^2, 24 hours after irradiation
[15] = 5-ALA 0.25 mM, 10 J/cm^2, immediately after irradiation
[16] = 5-ALA 0.25 mM, 50 J/cm^2, 24 hours after irradiation
[17] = 5-ALA 0.25 mM, 50 J/cm^2, immediately after irradiation
[18] = 5-ALA 0.25 mM, 100 J/cm^2, 24 hours after irradiation
[19] = 5-ALA 0.25 mM, 100 J/cm^2, immediately after irradiation
[20] = 5-ALA 0.25 mM, 200 J/cm^2, 24 hours after irradiation
[21] = 5-ALA 0.25 mM, 200 J/cm^2, immediately after irradiation
[22] = 5-ALA 0.25 mM, 300 J/cm^2, 24 hours after irradiation
[23] = 5-ALA 0.25 mM, 300 J/cm^2, immediately after irradiation
[24] = 5-ALA 0.25 mM, 400 J/cm^2, 24 hours after irradiation
[25] = 5-ALA 0.25 mM, 400 J/cm^2, immediately after irradiation
[26] = 5-ALA 0.25 mM, 500 J/cm^2, 24 hours after irradiation
[27] = 5-ALA 0.25 mM, 500 J/cm^2, immediately after irradiation
[28] = 5-ALA 0.5 mM, 1 J/cm^2, immediately after irradiation
[29] = 5-ALA 0.5 mM, 2.5 J/cm^2, immediately after irradiation
[30] = 5-ALA 0.5 mM, 5 J/cm^2, immediately after irradiation
[31] = 5-ALA 0.5 mM, 10 J/cm^2, immediately after irradiation
[32] = 5-ALA 0.5 mM, 50 J/cm^2, immediately after irradiation
[33] = 5-ALA 0.5 mM, 100 J/cm^2, immediately after irradiation
[34] = 5-ALA 0.5 mM, 200 J/cm^2, immediately after irradiation
[35] = 5-ALA 0.5 mM, 300 J/cm^2, immediately after irradiation
[36] = 5-ALA 0.5 mM, 400 J/cm^2, immediately after irradiation
[37] = 5-ALA 0.5 mM, 500 J/cm^2, immediately after irradiation

Structure (SMILES): NCC(=O)CCC(=O)O [5-ALA, 5-aminolevulinic acid]
- Annexin V+/PI+ (%) [1]: 6%
- Annexin V+/PI− (%) [1]: 4%
- Annexin V+/PI+ (%) [2]: 6%
- Annexin V+/PI− (%) [2]: 4%
- Annexin V+/PI+ (%) [3]: 6%
- Annexin V+/PI− (%) [3]: 5%
- Annexin V+/PI+ (%) [4]: 7%
- Annexin V+/PI− (%) [4]: 4%
- Annexin V+/PI+ (%) [5]: 9%
- Annexin V+/PI− (%) [5]: 4%
- Annexin V+/PI+ (%) [6]: 12%
- Annexin V+/PI− (%) [6]: 8%
- Annexin V+/PI+ (%) [7]: 33%
- Annexin V+/PI− (%) [7]: 14%
- Annexin V+/PI+ (%) [8]: 4%
- Annexin V+/PI− (%) [8]: 6%
- Annexin V−/PI− (%) [8]: 90%
- Annexin V+/PI+ (%) [9]: 8%
- Annexin V+/PI− (%) [9]: 4%
- Annexin V−/PI− (%) [9]: 88%
- Annexin V+/PI+ (%) [10]: 4%
- Annexin V+/PI− (%) [10]: 7%
- Annexin V−/PI− (%) [10]: 89%
- Annexin V+/PI+ (%) [11]: 6%
- Annexin V+/PI− (%) [11]: 4%
- Annexin V−/PI− (%) [11]: 89%
- Annexin V+/PI+ (%) [12]: 4%
- Annexin V+/PI− (%) [12]: 8%
- Annexin V−/PI− (%) [12]: 88%
- Annexin V+/PI+ (%) [13]: 7%
- Annexin V+/PI− (%) [13]: 4%
- Annexin V−/PI− (%) [13]: 88%
- Annexin V+/PI+ (%) [14]: 6%
- Annexin V+/PI− (%) [14]: 8%
- Annexin V−/PI− (%) [14]: 86%
- Annexin V+/PI+ (%) [15]: 6%
- Annexin V+/PI− (%) [15]: 4%
- Annexin V−/PI− (%) [15]: 90%
- Annexin V+/PI+ (%) [16]: 9%
- Annexin V+/PI− (%) [16]: 9%
- Annexin V−/PI− (%) [16]: 83%
- Annexin V+/PI+ (%) [17]: 8%
- Annexin V+/PI− (%) [17]: 4%
- Annexin V−/PI− (%) [17]: 87%
- Annexin V+/PI+ (%) [18]: 10%
- Annexin V+/PI− (%) [18]: 8%
- Annexin V−/PI− (%) [18]: 83%
- Annexin V+/PI+ (%) [19]: 10%
- Annexin V+/PI− (%) [19]: 4%
- Annexin V−/PI− (%) [19]: 85%
- Annexin V+/PI+ (%) [20]: 11%
- Annexin V+/PI− (%) [20]: 10%
- Annexin V−/PI− (%) [20]: 79%
- Annexin V+/PI+ (%) [21]: 12%
- Annexin V+/PI− (%) [21]: 5%
- Annexin V−/PI− (%) [21]: 82%
- Annexin V+/PI+ (%) [22]: 14%
- Annexin V+/PI− (%) [22]: 11%
- Annexin V−/PI− (%) [22]: 75%
- Annexin V+/PI+ (%) [23]: 13%
- Annexin V+/PI− (%) [23]: 4%
- Annexin V−/PI− (%) [23]: 82%
- Annexin V+/PI+ (%) [24]: 34%
- Annexin V+/PI− (%) [24]: 16%
- Annexin V−/PI− (%) [24]: 50%
- Annexin V+/PI+ (%) [25]: 18%
- Annexin V+/PI− (%) [25]: 4%
- Annexin V−/PI− (%) [25]: 77%
- Annexin V+/PI+ (%) [26]: 72%
- Annexin V+/PI− (%) [26]: 21%
- Annexin V−/PI− (%) [26]: 7%
- Annexin V+/PI+ (%) [27]: 33%
- Annexin V+/PI− (%) [27]: 3%
- Annexin V−/PI− (%) [27]: 63%
- Annexin V+/PI+ (%) [28]: 7%
- Annexin V+/PI− (%) [28]: 3%
- Annexin V−/PI− (%) [28]: 89%
- Annexin V+/PI+ (%) [29]: 5%
- Annexin V+/PI− (%) [29]: 2%
- Annexin V−/PI− (%) [29]: 92%
- Annexin V+/PI+ (%) [30]: 7%
- Annexin V+/PI− (%) [30]: 3%
- Annexin V−/PI− (%) [30]: 90%
- Annexin V+/PI− (%) [31]: 3%
- Annexin V−/PI− (%) [31]: 89%
- Annexin V+/PI− (%) [32]: 3%
- Annexin V−/PI− (%) [32]: 83%
- Annexin V+/PI− (%) [33]: 3%
- Annexin V−/PI− (%) [33]: 80%
- Annexin V+/PI− (%) [34]: 3%
- Annexin V−/PI− (%) [34]: 78%
- Annexin V+/PI+ (%) [35]: 23%
- Annexin V+/PI− (%) [35]: 3%
- Annexin V−/PI− (%) [35]: 72%
- Annexin V+/PI+ (%) [36]: 32%
- Annexin V+/PI− (%) [36]: 3%
- Annexin V−/PI− (%) [36]: 61%
- Annexin V+/PI+ (%) [37]: 62%
- Annexin V+/PI− (%) [37]: 2%
- Annexin V−/PI− (%) [37]: 30%
